Source: publication PMC9865890, “N-Derivatives of (Z)-Methyl 3-(4-Oxo-2-thioxothiazolidin-5-ylidene)methyl)-1H-indole-2-carboxylates as Antimicrobial Agents—In Silico and In Vitro Evaluation” (Pharmaceuticals, 2023)
≈ marks a conversion by molar mass, not a printed value. Like-named read-outs stand apart in the source and are kept apart here.

What was measured:
[1] = tested on: Enterobacter cloacae (clinical isolate); experiment: Antibacterial microdilution (MIC/MBC); assay type: cell-based; details: En.cl (En. cloacae)
Outline: (§1)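 Read-out: lowest concentration preventing growth (MIC) and lowest concentration killing the bacteria (MBC). Method was a modified microdilution, with streptomycin and ampicillin included for reference.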

[2] = tested on: Bacillus cereus (clinical isolate); experiment: Antibacterial microdilution (MIC/MBC); assay type: cell-based; details: B.c. (B. cereus)
Outline: as §1

[3] = tested on: Listeria monocytogenes (NCTC 7973); experiment: Antibacterial microdilution (MIC/MBC); assay type: cell-based; details: Listeria monocytogenes, NCTC7973, L.m. (L. monocytogenes)
Outline: as §1

[4] = tested on: Staphylococcus aureus (ATCC 6538); experiment: Antibacterial microdilution (MIC/MBC); assay type: cell-based; details: Staphylococcus aureus, ATCC6538, S.a. (S. aureus)
Outline: as §1

[5] = tested on: Escherichia coli (ATCC 35210); experiment: Antibacterial microdilution (MIC/MBC); assay type: cell-based; details: E. coli
Outline: as §1

[6] = tested on: M. flavus; experiment: Antibacterial microdilution (MIC/MBC); assay type: cell-based; details: Micrococcus flavus; M.f. (M. flavus)
Outline: as §1

[7] = tested on: Salmonella typhimurium (ATCC 13311); experiment: Antibacterial microdilution (MIC/MBC); assay type: cell-based; details: S.t. (S. typhimurium)
Outline: as §1

[8] = tested on: P. aeruginosa; experiment: Antibacterial microdilution (MIC/MBC); assay type: cell-based; details: P.a. (P. aeruginosa)
Outline: as §1

[9] = tested on: Penicillium funiculosum (ATCC 36839); experiment: Antifungal bioassay (MIC/MFC); assay type: cell-based; details: Talaromyces funiculosus, ATCC36839; P.f. (P. funiculosum)
Outline: (§2)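 Replicates: two per fungal strain.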

[10] = tested on: P. ochrochloron; experiment: Antifungal bioassay (MIC/MFC); assay type: cell-based; details: Penicillium ochrochloron
Outline: as §2

[11] = tested on: A. ochraceus; experiment: Antifungal bioassay (MIC/MFC); assay type: cell-based; details: A.o. (A. ochraceus)
Outline: as §2

[12] = tested on: Aspergillus fumigatus (ATCC 1022); experiment: Antifungal bioassay (MIC/MFC); assay type: cell-based; details: ATCC1022, A.f. (A. fumigatus)
Outline: as §2

[13] = tested on: Aspergillus niger (ATCC 6275); experiment: Antifungal bioassay (MIC/MFC); assay type: cell-based; details: ATCC6275, A.n. (A. niger)
Outline: as §2

[14] = tested on: Aspergillus versicolor (ATCC 11730); experiment: Antifungal bioassay (MIC/MFC); assay type: cell-based; details: ATCC11730, A.v. (A. versicolor)
Outline: as §2

[15] = tested on: Trichoderma viride (IAM 5061); experiment: Antifungal bioassay (MIC/MFC); assay type: cell-based; details: T.v. (T. viride)
Outline: as §2

[16] = tested on: Penicillium verrucosum var. cyclopium (food isolate); experiment: Antifungal bioassay (MIC/MFC); assay type: cell-based
[17] = in vitro; assay type: cell-based; details: human
Method: To evaluate cytotoxicity, compounds 1, 2, 8, and 11 were chosen to be tested in the human normal fetal lung fibroblast MRC-5 cell line within the following range of three concentrations for each substance: 1 × 10^−7 M (0.1 μM), 1 × 10^−6 Μ (1 μM), and 1 × 10^−5 M (10 μΜ). […] More specifically, under this exposure to compound 11, the cellular viability was measured to the level of 91.0%.
The normal human fetal lung fibroblast MRC-5 cell line was maintained and used in our laboratory (Dr. I.s.Vizirianakis, Laboratory of Pharmacology, School of Pharmacy, Aristotle University of Thessaloniki, Greece) (passage 15 < 40), as previously published. Cells were grown in culture under the following conditions: 37 °C, humidified atmosphere containing 5% v/v CO2, in DMEM (Dulbecco’s modified Eagle Medium) enriched with 10% FBS and 1% PS. The compounds tested were dissolved in DMSO and stored at 4 °C. […] After the incubation, the OD for each well was determined at 450 nm in a multifunction microplate reader. […] Statistical t-test and one-way analysis of variance (ANOVA) were performed via the use of the SPSS program and the significance level was determined at p < 0.05.

Compound: COC(=O)c1[nH]c2ccccc2c1/C=C1\SC(=S)N(CC(=O)O)C1=O [Compound 11, (Z)-2-(5-((2-(methoxycarbonyl)-1H-indol-3-yl)methylene)-4-oxo-2-thioxothiazolidin-3-yl)acetic acid]
- MIC [1]: 11 ± 10 µg/mL (≈ 29.2 µM)
- MBC ([1]; Enterobacter cloacae): 30 ± 10 µg/mL (≈ 79.7 µM)
- MIC ([1]; Enterobacter cloacae, read-out: MIC): 11 µg/mL (≈ 29.2 µM)
- MIC [2]: 8 ± 0.6 µg/mL (≈ 21.3 µM)
- MBC ([2]; Bacillus cereus): 15 ± 9 µg/mL (≈ 39.8 µM)
- MIC ([2]; Bacillus cereus, read-out: MIC): 8 µg/mL (≈ 21.3 µM)
- MBC [3]: 60 ± 6 µg/mL (≈ 159 µM)
- MIC ([3]; read-out: MIC): 30 ± 10 µg/mL (≈ 79.7 µM)
- MBC [4]: 15 ± 9 µg/mL (≈ 39.8 µM)
- MIC ([4]; read-out: MIC): 8 ± 0.6 µg/mL (≈ 21.3 µM)
- MIC [5]: 15 ± 9 µg/mL (≈ 39.8 µM)
- MBC ([5]; Escherichia coli, ATCC35210): 30 ± 10 µg/mL (≈ 79.7 µM)
- MIC ([5]; Escherichia coli, ATCC35210, read-out: MIC): 15 µg/mL (≈ 39.8 µM)
- MBC [6]: 60 ± 6 µg/mL (≈ 159 µM)
- MIC [6]: 30 ± 10 µg/mL (≈ 79.7 µM)
- MIC [7]: 15 ± 9 µg/mL (≈ 39.8 µM)
- MBC ([7]; Salmonella enterica): 30 ± 10 µg/mL (≈ 79.7 µM)
- MIC ([7]; Salmonella enterica, read-out: MIC): 15 µg/mL (≈ 39.8 µM)
- MIC [8]: 11 ± 10 µg/mL (≈ 29.2 µM)
- MBC ([8]; Pseudomonas aeruginosa): 30 ± 10 µg/mL (≈ 79.7 µM)
- MIC ([8]; Pseudomonas aeruginosa, read-out: MIC): 11 µg/mL (≈ 29.2 µM)
- MFC [9]: 30 ± 10 µg/mL (≈ 79.7 µM)
- MIC [9]: 15 ± 3 µg/mL (≈ 39.8 µM)
- MFC ([10]; P.o. (P. ochrochloron)): 30 ± 10 µg/mL (≈ 79.7 µM)
- MIC ([10]; P.o. (P. ochrochloron; text: P. ochramensis), read-out: MIC): 15 ± 3 µg/mL (≈ 39.8 µM)
- MIC [11]: 8 ± 0.6 µg/mL (≈ 21.3 µM)
- MFC ([11]; Aspergillus ochraceus): 15 ± 3 µg/mL (≈ 39.8 µM)
- MIC ([11]; Aspergillus ochraceus, read-out: MIC): 8 µg/mL (≈ 21.3 µM)
- MFC [12]: 120 ± 40 µg/mL (≈ 319 µM)
- MIC [12]: 60 ± 6 µg/mL (≈ 159 µM)
- MFC [13]: 30 ± 10 µg/mL (≈ 79.7 µM)
- MIC [13]: 15 ± 3 µg/mL (≈ 39.8 µM)
- MFC [14]: 30 ± 10 µg/mL (≈ 79.7 µM)
- MIC [14]: 15 ± 3 µg/mL (≈ 39.8 µM)
- MIC [15]: 8 ± 0.6 µg/mL (≈ 21.3 µM)
- MFC ([15]; Trichoderma viride, IAM5061): 15 ± 3 µg/mL (≈ 39.8 µM)
- MIC ([15]; Trichoderma viride, IAM5061, read-out: MIC): 8 µg/mL (≈ 21.3 µM)
- MFC [16]: 30 ± 10 µg/mL (≈ 79.7 µM)
- MIC [16]: 15 ± 3 µg/mL (≈ 39.8 µM)
- melting point: 292 to 294 °C
- viability at 48 h, 1 µM [17]: 91%
- viability at 48 h, 10 µM [17]: 91%
